{
  "source": "patent US9181172B2",
  "about": "“Rhein conjugates, preparation method thereof and their uses in producing medicines for treating diabetic nephrosis, intestinal adhesion and osteoarthritis” (priority 2005, dated 2015)",
  "type_in_all_cases": "in vivo",
  "key": {"rats": {"test_system": "rats", "test": "Formation of granuloma in rats (arthritis example, test 4)", "settings": "20 mg/kg intragastric, two weeks", "protocol": "Rats were randomly divided into five groups (model control group, indomethacin group, rhein glucosamine large dose group and small dose group and rhein sodium group). Each group has 10 […]. According to the method in the literature [Xu Shuyun, Methodology in Pharmacological Experiment (the 3rd version): 918], the models were built, and the rats were administered with medicines since the day when starting operations. […] Two weeks later, the rats were killed and test was carried on according to the method in the literature. The net weight of granulation was calculated, and t test was used for the intergroup comparison."}, "mice [1]": {"test_system": "mice", "test": "Xylene-induced swelling of auricle in mice", "settings": "ig 40 mg/kg, 3 days", "protocol": "Fifty male Kunming mice were selected, weighing 18-22 g each, and randomly divided into five groups, namely, model control group, aspirin group, rhein sodium group, rhein glucosamine large dose group and low dose groups. Each group had 10 mice respectively. The mice were administered with medicines by intragastric administration every day, for 0.2 ml/10 g body weight. The mice of the model control group were administered with equal volume of physiological saline, once every day, continuously administration for 3 days. After 60 minutes of the final administration, carried on test according to the method in the literature [Xu Shuyun, Methodology in Pharmacological Experiment (the 3rd version): 911]. The sweeling degree of auricle was calculated and statistical analysis was conducted."}, "[2]": {"test_system": "rabbits' ear marginal veins", "test": "Safety of hydro-acupuncture injection: irritation of rabbits' ear marginal vein", "settings": "rabbit, in vivo", "text": "In rabbits' ear marginal vein aseptic operation, rhein sodium salt, rhein arginine conjugates and 0.9% sodium chloride injection liquid were slowly filled into the veins respectively every two days for three consecutive times."}, "mice [3]": {"test_system": "mice", "test": "Capillary permeability of mice", "settings": "dosage 12 mg/kg", "protocol": "Each group has 12 mice, administration: 0.20 ml/10 g. Mice in the model control group were administrated with isovolumic physiologic saline."}, "obese hyperglycemia mice": {"test_system": "obese hyperglycemia mice", "test": "Body weight and blood glucose of obese hyperglycemia mice", "protocol": "9-week-old obese mice of hyperglycemia were randomly divided into: rhein sodium group, non-treatment group, rosiglitazone group, rhein lysine high-dose group and low-dose group, each group has 6 mice. Kunming mice of the same age were used as the control group, which were fed by conventional feedstuff with free food and water feeding. Rhein lysine conjugates [the dose is 180 mg/kg (0.418 mmol/kg) and 90 mg/kg (0.209 mmol/kg) for intragastric infusion, prepared with distilled water], dose of the rhein sodium group is 130 mg/kg (0.424 mmol/kg), the mixture was dissolved with distilled water, intragastric administration; rosiglitazone group (the dose is 4 mg/kg), the mixture was dissolved with distilled water, intragastric administration, and the rats of the other two groups were administered with the same volume of distilled water, once a day, 12 weeks of administration in succession. The animals' body weight and blood sugar were measured regularly, and statistical analysis was conducted."}, "mice [4]": {"test_system": "mice", "test": "Acetic acid-induced writhing response in mice", "settings": "ig 40 mg/kg, 12 days", "protocol": "Fifty Kunming mice, half male and half female, weighing 18-22 g each, were selected and randomly divided into five groups, namely, model control group, aspirin group, rhein sodium group, rhein glucosamine large dose group and small dose group, 10 mice for each group. The mice were administered with medicine by intragastric administration every day, 0.2 ml/10 g body weight, once every day, and administered for 12 days in succession. After the final administration of medicines, 30 minutes later, test was carried on according to the methods in the literature [Xu Shuyun, Methodology in Pharmacological Experiment (the 1st version): 882]. The inhibiting rate for writhing response was calculated."}, "[5]": {"settings": "baseline of group given ig 130 mg/kg once a day"}},
  "note": "Counter-ions that a name gives are not always drawn.",
  "data": [
    {"smiles": "O=C(O)c1cc(O)c2c(c1)C(=O)c1cccc(O)c1C2=O", "note": "[Rhein sodium salt, rhein sodium salt]", "values": [
      {"measurement": "Net weight of granulation", "setting": "rats", "value": "15.23 ± 2.99Δ Δ mg"},
      {"measurement": "inhibition rate", "setting": "mice [1]", "value": 29.8, "unit": "%"},
      {"measurement": "swelling degree of auricle", "setting": "mice [1]", "value": "12.5 ± 2.2", "unit": "mg"},
      {"measurement": "biopsy of rabbits' ear marginal vein", "setting": "[2]", "value": "slight with partial endothelial cell necrosis and abscission, and inflammatory response of the surrounding tissues"},
      {"measurement": "irritation on rabbits' ear marginal veins", "setting": "[2]", "value": "has irritation"},
      {"measurement": "absorbance value", "setting": "mice [3]", "value": "0.494 ± 0.134"},
      {"measurement": "Blood glucose prior to administration", "setting": "obese hyperglycemia mice; [5]", "value": "28.9 ± 4.8", "unit": "mmol/L"},
      {"measurement": "Body weight prior to administration", "setting": "obese hyperglycemia mice; [5]", "value": "28.9 ± 1.8", "unit": "g"},
      {"measurement": "Blood glucose 6 w after administration", "setting": "obese hyperglycemia mice; ig 130 mg/kg once a day", "value": "31.2 ± 5.5", "unit": "mmol/L"},
      {"measurement": "Blood glucose 9 w after administration", "setting": "obese hyperglycemia mice; ig 130 mg/kg once a day", "value": "33.5 ± 5.4", "unit": "mmol/L"},
      {"measurement": "Blood glucose 12 w after administration", "setting": "obese hyperglycemia mice; ig 130 mg/kg once a day", "value": "30.1 ± 4.5", "unit": "mmol/L"},
      {"measurement": "Body weight 6 w after administration", "setting": "obese hyperglycemia mice; ig 130 mg/kg once a day", "value": "35.8 ± 1.5", "unit": "g"},
      {"measurement": "Body weight 9 w after administration", "setting": "obese hyperglycemia mice; ig 130 mg/kg once a day", "value": "39.5 ± 1.4", "unit": "g"},
      {"measurement": "Body weight 12 w after administration", "setting": "obese hyperglycemia mice; ig 130 mg/kg once a day", "value": "41.1 ± 1.5", "unit": "g"},
      {"measurement": "Inhibiting rate", "setting": "mice [4]", "value": 37.7, "unit": "%"},
      {"measurement": "Times of writhing", "setting": "mice [4]", "value": "20.1 ± 8.9", "unit": "per/20 min"}
    ]}
  ]
}
